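A five-concentration, 48-hour dose response in 96-well plates underlies each endpoint, interpolated linearly between surrounding concentrations. Here, GI50 denotes the concentration required for 50% inhibition of growth. The concentration for full growth arrest is given as TGI.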
Key:
Test in all cases: NCI-60 cell line screen, 48 h
[1] = test system: 786-0 renal
[2] = test system: A498 renal
[3] = test system: A549 NSCLC
[4] = test system: ACHN renal
[5] = test system: BT-549 breast
[6] = test system: CAKI-1 renal
[7] = test system: CCRF-CEM leukemia
[8] = test system: COLO 205 colon
[9] = test system: DU-145 prostate
[10] = test system: EKVX NSCLC
[11] = test system: HCC-2998 colon
[12] = test system: HCT-116 colon
[13] = test system: HCT-15 colon
[14] = test system: HL-60(TB) leukemia
[15] = test system: HOP-62 NSCLC
[16] = test system: HOP-92 NSCLC
[17] = test system: HS 578T breast
[18] = test system: HT29 colon
[19] = test system: IGROV1 ovarian
[20] = test system: K-562 leukemia
[21] = test system: KM12 colon
[22] = test system: LOX IMVI melanoma
[23] = test system: M14 melanoma
[24] = test system: MALME-3M melanoma
[25] = test system: MCF7 breast
[26] = test system: MDA-MB-231 breast
[27] = test system: MDA-MB-435
[28] = test system: MOLT-4 leukemia
[29] = test system: NCI-H226 lung
[30] = test system: NCI-H23 lung
[31] = test system: NCI-H460 lung
[32] = test system: NCI-H522 lung
[33] = test system: NCI/ADR-RES ovarian
[34] = test system: OVCAR-3 ovarian
[35] = test system: OVCAR-4 ovarian
[36] = test system: OVCAR-5 ovarian
[37] = test system: OVCAR-8 ovarian
[38] = test system: PC-3 prostate
[39] = test system: RPMI-8226 leukemia
[40] = test system: RXF 393 renal
[41] = test system: SF-268 CNS
[42] = test system: SF-295 CNS
[43] = test system: SF-539 CNS
[44] = test system: SK-MEL-2 melanoma
[45] = test system: SK-MEL-28 melanoma
[46] = test system: SK-MEL-5 melanoma
[47] = test system: SK-OV-3 ovarian
[48] = test system: SN12C renal
[49] = test system: SNB-19 CNS
[50] = test system: SNB-75 CNS
[51] = test system: SR leukemia
[52] = test system: SW-620 colon
[53] = test system: T-47D breast
[54] = test system: TK-10 renal
[55] = test system: U251 CNS
[56] = test system: UACC-257 melanoma
[57] = test system: UACC-62 melanoma
[58] = test system: UO-31 renal

`Nc1ccc(S(=O)(=O)c2ccc(N)cc2)cc1` gave a GI50 [1] of over 100 µM, a TGI [1] of over 100 µM and a GI50 [2] of 64.8 µM. For the same compound, the TGI [2] was over 100 µM, the GI50 [3] was over 100 µM and the TGI [3] was over 100 µM. It also gave a GI50 [4] of over 100 µM, a TGI [4] of over 100 µM and a GI50 [5] of over 100 µM. The TGI [5] was over 100 µM, the GI50 [6] was over 100 µM and the TGI [6] was over 100 µM. The GI50 [7] was over 100 µM, the TGI [7] was over 100 µM and the GI50 [8] was over 100 µM. The TGI [8] was over 100 µM, the GI50 [9] was over 100 µM and the TGI [9] was over 100 µM. For the same compound, the GI50 [10] was over 100 µM, the TGI [10] was over 100 µM and the GI50 [11] was over 100 µM. For the same compound, the TGI [11] was over 100 µM, the GI50 [12] was over 100 µM and the TGI [12] was over 100 µM. For the same compound, the GI50 [13] was over 100 µM, the TGI [13] was over 100 µM and the GI50 [14] was over 100 µM. It also gave a TGI [14] of over 100 µM, a GI50 [15] of over 100 µM and a TGI [15] of over 100 µM. For the same compound, the GI50 [16] was over 100 µM, the TGI [16] was over 100 µM and the GI50 [17] was 68.4 µM. The TGI [17] was over 100 µM, the GI50 [18] was over 100 µM and the TGI [18] was over 100 µM. The GI50 [19] was over 100 µM, the TGI [19] was over 100 µM and the GI50 [20] was over 100 µM. It also gave a TGI [20] of over 100 µM, a GI50 [21] of over 100 µM and a TGI [21] of over 100 µM. The GI50 [22] was over 100 µM, the TGI [22] was over 100 µM and the GI50 [23] was over 100 µM. The TGI [23] was over 100 µM, the GI50 [24] was over 100 µM and the TGI [24] was over 100 µM. For the same compound, the GI50 [25] was over 100 µM, the TGI [25] was over 100 µM and the GI50 [26] was over 100 µM. It also gave a TGI [26] of over 100 µM, a GI50 [27] of over 100 µM and a TGI [27] of over 100 µM. It also gave a GI50 [28] of over 100 µM, a TGI [28] of over 100 µM and a GI50 [29] of over 100 µM. It also gave a TGI [29] of over 100 µM, a GI50 [30] of over 100 µM and a TGI [30] of over 100 µM. It also gave a GI50 [31] of over 100 µM, a TGI [31] of over 100 µM and a GI50 [32] of over 100 µM. The TGI [32] was over 100 µM, the GI50 [33] was over 100 µM and the TGI [33] was over 100 µM. The GI50 [34] was over 100 µM, the TGI [34] was over 100 µM and the GI50 [35] was over 100 µM. For the same compound, the TGI [35] was over 100 µM, the GI50 [36] was over 100 µM and the TGI [36] was over 100 µM. The GI50 [37] was over 100 µM, the TGI [37] was over 100 µM and the GI50 [38] was over 100 µM. It also gave a TGI [38] of over 100 µM, a GI50 [39] of over 100 µM and a TGI [39] of over 100 µM. For the same compound, the GI50 [40] was over 100 µM, the TGI [40] was over 100 µM and the GI50 [41] was over 100 µM. The TGI [41] was over 100 µM, the GI50 [42] was over 100 µM and the TGI [42] was over 100 µM. It also gave a GI50 [43] of over 100 µM, a TGI [43] of over 100 µM and a GI50 [44] of over 100 µM. The TGI [44] was over 100 µM, the GI50 [45] was over 100 µM and the TGI [45] was over 100 µM. The GI50 [46] was over 100 µM, the TGI [46] was over 100 µM and the GI50 [47] was over 100 µM. The TGI [47] was over 100 µM, the GI50 [48] was over 100 µM and the TGI [48] was over 100 µM. For the same compound, the GI50 [49] was over 100 µM, the TGI [49] was over 100 µM and the GI50 [50] was over 100 µM. For the same compound, the TGI [50] was over 100 µM, the GI50 [51] was over 100 µM and the TGI [51] was over 100 µM. For the same compound, the GI50 [52] was over 100 µM, the TGI [52] was over 100 µM and the GI50 [53] was over 100 µM. For the same compound, the TGI [53] was over 100 µM, the GI50 [54] was over 100 µM and the TGI [54] was over 100 µM. It also gave a GI50 [55] of over 100 µM, a TGI [55] of over 100 µM and a GI50 [56] of over 100 µM. It also gave a TGI [56] of over 100 µM, a GI50 [57] of over 100 µM and a TGI [57] of over 100 µM. For the same compound, the GI50 [58] was over 100 µM and the TGI [58] was over 100 µM.

`O=C(/C=C/c1ccc2ccccc2c1)NCc1ccc(C(=O)NCc2ccccc2)cc1` was tested, and the TGI [1] was over 100 µM, the TGI [2] was over 100 µM and the TGI [3] was over 100 µM. It also gave a TGI [4] of over 100 µM, a TGI [5] of over 100 µM and a TGI [6] of over 73.1 µM. It also gave a TGI [7] of over 100 µM, a TGI [8] of over 100 µM and a TGI [9] of over 100 µM. The TGI [10] was over 100 µM, the TGI [11] was over 100 µM and the TGI [12] was over 100 µM. For the same compound, the TGI [13] was over 100 µM, the TGI [14] was 38.8 µM and the TGI [15] was 52.9 µM. It also gave a TGI [16] of over 100 µM, a TGI [17] of over 100 µM and a TGI [18] of over 100 µM. For the same compound, the TGI [19] was over 100 µM, the TGI [20] was over 31.6 µM and the TGI [21] was over 100 µM. It also gave a TGI [22] of over 100 µM, a TGI [23] of over 100 µM and a TGI [24] of over 100 µM. It also gave a TGI [25] of over 100 µM, a TGI [26] of over 100 µM and a TGI [27] of over 100 µM. It also gave a TGI [28] of over 100 µM, a TGI [29] of 86.8 µM and a TGI [30] of over 100 µM. For the same compound, the TGI [31] was over 100 µM, the TGI [32] was over 100 µM and the TGI [33] was over 100 µM. It also gave a TGI [34] of over 100 µM, a TGI [35] of over 100 µM and a TGI [36] of over 100 µM. It also gave a TGI [37] of over 100 µM, a TGI [38] of over 100 µM and a TGI [39] of over 100 µM. It also gave a TGI [40] of over 100 µM, a TGI [41] of over 100 µM and a TGI [42] of over 100 µM. For the same compound, the TGI [43] was over 100 µM, the TGI [44] was over 100 µM and the TGI [45] was over 100 µM. For the same compound, the TGI [46] was over 100 µM, the TGI [47] was over 100 µM and the TGI [48] was over 100 µM. For the same compound, the TGI [49] was over 100 µM, the TGI [50] was 71.1 µM and the TGI [51] was over 100 µM. For the same compound, the TGI [52] was over 100 µM, the TGI [53] was over 89.6 µM and the TGI [54] was over 100 µM. For the same compound, the TGI [55] was over 100 µM, the TGI [56] was over 100 µM and the TGI [57] was over 100 µM. It also gave a TGI [58] of over 100 µM.

Reference: PubChem BioAssay (NCI)
